± gives the standard deviation of the averaged measurements.
Legend:
MLN-4924 = compound: NS(=O)(=O)OC[C@@H]1C[C@@H](n2ccc3c(N[C@H]4CCc5ccccc54)ncnc32)C[C@@H]1O [MLN-4924]; assay: surviving fraction relative to DMSO-only wells; higher = less growth inhibition; conditions: exposure time: 5 days
Procedure, shortened: (§1)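 Tumour cell lines were seeded in log phase at 250–500 cells per well into 384-well plates. Starting 24 hours later, inhibitors were present continuously for five days at 0.5, 1, 5, 10, 50, 100, 500 and 1000 nM. Surviving fraction, from CellTiter-Glo luminescence, is normalised to the median of DMSO-only wells. Three screens per line were required, with replicate Pearson r >0.7 and median Z' >0.3 for a line to be kept.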

OLAPARIB = compound: O=C(c1cc(Cc2n[nH]c(=O)c3ccccc23)ccc1F)N1CCN(C(=O)C2CC2)CC1 [OLAPARIB]; assay: as above; conditions: exposure time: 5 days
Procedure, shortened: as §1

Test System	surviving fraction (MLN-4924; 0.5 nM)	surviving fraction (MLN-4924; 1 nM)	surviving fraction (MLN-4924; 5 nM)	surviving fraction (MLN-4924; 10 nM)	surviving fraction (MLN-4924; 50 nM)	surviving fraction (MLN-4924; 100 nM)	surviving fraction (MLN-4924; 500 nM)	surviving fraction (MLN-4924; 1000 nM)	surviving fraction (OLAPARIB; 0.5 nM)	surviving fraction (OLAPARIB; 1 nM)	surviving fraction (OLAPARIB; 5 nM)	surviving fraction (OLAPARIB; 10 nM)	surviving fraction (OLAPARIB; 50 nM)	surviving fraction (OLAPARIB; 100 nM)	surviving fraction (OLAPARIB; 500 nM)	surviving fraction (OLAPARIB; 1000 nM)
22RV1 PROSTATE	1.07 ± 0.05	0.967 ± 0.15	1.03 ± 0.12	0.81 ± 0.1	0.653 ± 0.048	0.47 ± 0.055	0.283 ± 0.058	0.26 ± 0.13	1.08 ± 0.029	1.04 ± 0.044	1.05 ± 0.036	1.01 ± 0.09	1.06 ± 0.031	1 ± 0.05	1.04 ± 0.049	0.997 ± 0.051
93VU HEADNECK	1.01 ± 0.083	1.11 ± 0.068	1.09 ± 0.047	1.1 ± 0.051	0.828 ± 0.079	0.533 ± 0.034	0.166 ± 0.015	0.133 ± 0.0059	1.02 ± 0.1	1.01 ± 0.074	1.12 ± 0.033	1.07 ± 0.09	0.955 ± 0.072	0.955 ± 0.03	0.92 ± 0.049	0.837 ± 0.096
143B BONE	1.03 ± 0.023	1.01 ± 0.034	1.04 ± 0.033	1.018 ± 0.0099	0.961 ± 0.042	0.699 ± 0.028	0.062 ± 0.0042	0.033 ± 0.0028	1.025 ± 0.0014	1.044 ± 0.0092	1.04 ± 0.019	1 ± 0.025	1.05 ± 0.027	1.01 ± 0.017	1.02 ± 0.023	0.9915 ± 0.005
A549 LUNG	1.061 ± 0.0093	1.05 ± 0.034	1.04 ± 0.023	1 ± 0.034	1.11 ± 0.041	1.1 ± 0.024	0.781 ± 0.011	0.417 ± 0.044	1.06 ± 0.036	1.07 ± 0.042	1.06 ± 0.031	1.05 ± 0.035	1.06 ± 0.025	1.04 ± 0.045	1.09 ± 0.021	1.02 ± 0.057
ASKA SYNOVIAL	1.11 ± 0.025	1.01 ± 0.02	1.08 ± 0.14	1.151 ± 0.011	0.946 ± 0.18	0.486 ± 0.08	0.33 ± 0.04	0.348 ± 0.019	1.16 ± 0.13	1.13 ± 0.043	1.14 ± 0.096	1.06 ± 0.09	0.936 ± 0.051	0.921 ± 0.044	0.772 ± 0.056	0.655 ± 0.071
BT20 BREAST	1.13 ± 0.042	1.168 ± 0.0072	1.13 ± 0.073	1.16 ± 0.1	1.2 ± 0.084	1.23 ± 0.18	0.989 ± 0.098	0.645 ± 0.044	0.996 ± 0.12	1.14 ± 0.055	0.942 ± 0.14	1.04 ± 0.096	0.757 ± 0.1	0.732 ± 0.13	0.795 ± 0.21	0.773 ± 0.085
BT549 BREAST	1.05 ± 0.043	1 ± 0.19	1.02 ± 0.064	0.957 ± 0.052	0.732 ± 0.14	0.575 ± 0.062	0.194 ± 0.067	0.148 ± 0.046	1.03 ± 0.096	1.01 ± 0.064	0.941 ± 0.0053	0.9883 ± 0.0074	0.686 ± 0.041	0.719 ± 0.062	0.718 ± 0.033	0.598 ± 0.048
C33A CERVIX	0.905 ± 0.042	0.916 ± 0.093	0.929 ± 0.13	0.952 ± 0.11	0.542 ± 0.032	0.358 ± 0.027	0.132 ± 0.026	0.0803 ± 0.028	1.04 ± 0.098	1.04 ± 0.02	1.07 ± 0.049	1.03 ± 0.017	1.05 ± 0.098	0.998 ± 0.14	0.895 ± 0.068	0.841 ± 0.11
CADOES1 SOFT TISSUE	0.993 ± 0.094	0.97 ± 0.047	0.913 ± 0.052	0.787 ± 0.057	0.879 ± 0.057	0.812 ± 0.082	0.0993 ± 0.014	0.053 ± 0.007	1.01 ± 0.059	0.855 ± 0.072	1.03 ± 0.07	0.8393 ± 0.0035	0.951 ± 0.046	0.953 ± 0.076	0.895 ± 0.084	0.81 ± 0.14
CAL51 BREAST	1.01 ± 0.035	1.01 ± 0.045	1.06 ± 0.025	1.01 ± 0.051	0.922 ± 0.067	0.702 ± 0.085	0.2 ± 0.022	0.128 ± 0.012	0.97 ± 0.044	1 ± 0.051	0.95 ± 0.025	0.926 ± 0.07	0.948 ± 0.03	0.882 ± 0.076	0.828 ± 0.024	0.66 ± 0.051
